Tests used:
mNotch1ΔE = experiment: Notch signaling CBF1-luciferase reporter assay in HeLa cells transfected with mNotch1ΔE; assay type: cell-based; details: for IC50: HeLa, treated overnight; for mNotch1ΔE/Aβ1-42: ratio of IC50 values
Protocol: Inhibition of Notch signaling in cultured cells using a mouse-derived truncated Notch1 transgene, mNotch-ΔE [67], has been described in detail previously. Western blots for mNotchΔ1865 and NICD using 9E10 anti-c-myc monoclonal were carried out as previously described.
The effect of BMS-869780 on Notch processing was evaluated using transcriptional reporter assays and western blotting of NICD levels. HeLa cell cultures were transfected with mNotch1ΔE and CBF1-luciferase reporter constructs and treated with BMS-869780. In most replicates of this experiment, inhibition of luciferase reporter occurred with IC50 > 10 μM. […] To further evaluate the effect of BMS-869780 on Notch processing, western blots of cell cultures were carried out using mNotch1Δ1865, a truncated version of mNotch1ΔE that facilitates separation of NICD product from mNotch1 substrate on western blots. HeLa cell cultures were transfected with mNotch1Δ1865 and treated overnight with compounds before western blotting. […] Furthermore, the GSIs caused an increased level of mNotch1Δ1865 substrate, most likely due to inhibition of its turnover by γ-secretase, as previously noted by Blat et al..
(b) HeLa cell cultures were transfected with mNotchΔ1865, treated with compounds overnight, and cell extracts were evaluated by western blot using anti-c-myc-HRP conjugate. Lanes 1 and 9: DMSO (0.1%) vehicle. Lane 2: BMS-299897 at 1 μM. Lane 3: BMS-433796 at 0.3 μM. Lanes 4–8: BMS-869780 at 0.1, 0.3, 1, 3, and 10 μM, respectively.

Aβ1-40 (H4-APPsw) = experiment: Aβ1-40 time-resolved fluorescence immunoassay in H4-APPsw cell cultures; assay type: cell-based, human; details: for IC50: Homo sapiens, H4-APPsw cultures treated overnight
Protocol: H4-APPsw cell cultures were maintained on Dulbecco's modified Eagle's medium (DMEM) supplemented with L-glutamine (2 mM), fetal bovine serum (10%), and G418 (100 μg/mL). […] Aβ1-42 and Aβ1-40 assays, and Notch inhibition assays, were carried out as described previously. Mouse embryonic fibroblasts deficient in PS1 and PS2 (MEF dKO) were passaged twice per week in DMEM/F-12 medium, consisting of a 1 : 1 mixture of DMEM and F-12 nutrient mixture supplemented with 10% fetal bovine serum, penicillin, and streptomycin. For expression of human presenilin-1 in MEF dKO cells, the full length human presenilin-1 cDNA open reading frame was cloned between the BamHI and XhoI sites of the vector pcDNA5/FRT (Invitrogen), placing presenilin-1 expression under the control of the CMV promoter. The M146V mutated allele was introduced into the presenilin-1 expression construct by polymerase chain reaction using the oligonucleotide primers 5′-[…]-3′ and 5′-[…]-3 (QuikChange kit, Invitrogen). MEF dKO cultures were cotransfected with DNA constructs expressing APP-CTF, encoding the C-terminal 99 amino acids of APP [61] and either the human presenilin-1 or presenilin-1 M146V allele. Transfected cultures were incubated overnight at 37°C in 5% CO2 atmosphere and then harvested, resuspended in DMEM/F-12 medium, dispensed into 96-well culture plates, and incubated for 6 hours at 37°C in 5% CO2 atmosphere. Culture medium was then replaced with Ultraculture serum free medium (Lonza, Rockland, ME) with or without compounds at a range of concentrations and incubated overnight.
IC50 determinations for Aβ1-42 and Aβ1-40 in H4-APPsw cultures in 384-well format were determined using homogeneous time-resolved fluorescence immunoassays as previously described. The principle of these assays is illustrated in Figures 1(c) and 1(d). In other experiments using H4-APPsw cultures, Aβ was quantified by ELISA; for Aβ1-42 the combination of monoclonal antibodies was 26D6 and 565-HRP; for Aβ1-40 it was TSD and 26D6-HRP, and for Aβ1-x it was 4G8 and 26D6-HRP. In some experiments a novel 4-plex Aβ electrochemiluminescence immunoassay was used (Mesoscale Discovery catalog number N45ZA-1). Briefly, the 4-plex was carried out in 96-well format, with 4 separate spots of capture antibodies in each well. […] For Aβ in transiently transfected PS1/PS2 dKO fibroblasts, Aβ1-42 was quantified using an ELISA kit (WACO), and Aβ1-40 was quantified by ELISA as described above for H4-APPsw cultures. […] For the rat and mouse experiments illustrated in Figures 7 and 8, brain samples were prepared by solid phase extraction, and endogenous rat brain Aβ1-42 and Aβ1-40 were quantified by ELISA as previously described for wild type mice. […]

SMILES | Notch/Aβ1-42 IC50 ratios (mNotch1ΔE; GSIs) | IC50 (mNotch1ΔE) [nM] | mNotch1ΔE/Aβ1-42 (mNotch1ΔE) [x] | IC50 (Aβ1-40 (H4-APPsw)) [nM] | ratio of Notch to Aβ1-42 IC50s (mNotch1ΔE; based on IC50 >10 μM for Notch) [fold] | shift in IC50 values between Aβ1-42 and Aβ1-40 (Aβ1-40 (H4-APPsw); H4-APPsw) [fold]
C[C@H](c1ccc(F)cc1CCCC(=O)O)N(c1cc(F)ccc1F)S(=O)(=O)c1ccc(Cl)cc1 [BMS-299897, reference compound] | 723 | 340 | 723 | 1.3 |  | 
COc1cc(Nc2nc3n(n2)CCCC[C@H]3c2ccc(F)cc2)ccc1-n1cnc(Cl)c1 [BMS-869780] |  | > 10000 | >1785 | 24.1 | > 1785 | 4
